{"source": "ChEMBL document CHEMBL4219254", "about": "“Harnessing biosynthesis and quantitative NMR for late stage functionalization of lead molecules: Application to the M1 positive allosteric modulator (PAM) program” (Bioorg Med Chem Lett, 2018)", "key": {"[1]": {"molecular_target": "T1, Muscarinic acetylcholine receptor M1 (Homo sapiens, UniProt P11229)", "T1 sequence (P11229 whole entry)": "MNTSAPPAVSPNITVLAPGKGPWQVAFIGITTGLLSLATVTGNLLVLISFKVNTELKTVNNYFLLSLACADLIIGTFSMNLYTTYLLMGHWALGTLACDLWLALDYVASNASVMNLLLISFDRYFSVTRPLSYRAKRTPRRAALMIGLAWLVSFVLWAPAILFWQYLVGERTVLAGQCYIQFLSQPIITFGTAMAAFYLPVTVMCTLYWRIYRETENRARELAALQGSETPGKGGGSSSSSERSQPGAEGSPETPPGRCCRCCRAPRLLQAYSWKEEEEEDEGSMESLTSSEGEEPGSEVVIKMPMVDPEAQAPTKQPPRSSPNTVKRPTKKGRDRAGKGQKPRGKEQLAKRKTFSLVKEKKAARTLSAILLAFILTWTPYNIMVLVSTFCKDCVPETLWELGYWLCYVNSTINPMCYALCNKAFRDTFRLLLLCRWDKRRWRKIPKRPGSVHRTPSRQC", "assay": "Positive allosteric modulation of human muscarinic M1 receptor expressed in CHO cells assessed as increase in ACh-induced intracellular calcium level preincubated for 10 mins followed by ACh addition measured every 2 secs for 80 secs by Fluo-4 dye-based FLIPR assay", "type": "functional, cell-based"}, "[2]": {"assay": "Drug level in rabbit liver microsomes treated with 4-(4-(1H-pyrazol-1-yl)benzyl)-N-((3R,4S)-3-hydroxytetrahydro-2H-pyran-4-yl)-5-methylpicolinamide at 20 uM after 60 mins by UHPLC-UV-HRMS analysis", "type": "ADME, Oryctolagus cuniculus, microsome"}, "[3]": {"assay": "Drug level in hamster liver microsomes treated with N-((3R,4S)-3-hydroxytetrahydro-2H-pyran-4-yl)-1-(4-(1-methyl-1H-pyrazol-3-yl)benzyl)-1H-pyrrolo[3,2-b]pyridine-3-carboxamide at 20 uM by UHPLC-UV-HRMS analysis", "type": "ADME, microsome", "settings": "cricetinae"}, "[4]": {"assay": "Drug level in rabbit liver microsomes treated with 5-(4-(1H-pyrazol-1-yl)benzyl)-N-((1S,2S)-2-hydroxycyclohexyl)-1,6-dimethyl-2-oxo-1,2-dihydropyridine-3-carboxamide at 20 uM after 60 mins by UHPLC-UV-HRMS analysis", "type": "ADME, Oryctolagus cuniculus, microsome"}, "[5]": {"assay": "Drug level in guinea pig liver microsomes treated with 1-(4-(1H-pyrazol-1-yl)benzyl)-N-((1S,2S)-2-hydroxycyclohexyl)-1H-pyrrolo[3,2-b]pyridine-3-carboxamide at 20 uM after 75 mins by UHPLC-UV-HRMS analysis", "type": "ADME, Cavia porcellus, microsome", "settings": "1.25 h"}, "[6]": {"assay": "Permeability in RRCK cells", "type": "ADME, cell-based, Canis lupus familiaris, MDCKII-LE", "settings": "dog, MDCK; read-out: permeability"}, "[7]": {"test_system": "MDR1", "assay": "Efflux ratio of permeability in MDCK cells expressing MDR1", "type": "ADME, cell-based, Canis lupus familiaris", "settings": "dog"}, "[8]": {"assay": "Intrinsic clearance in human liver microsomes", "type": "ADME, microsome", "settings": "read-out: CLH"}, "[9]": {"assay": "Drug metabolism in rabbit liver microsomes assessed as formation of 5-(4-(1H-pyrazol-1-yl)benzyl)-N-((1S,2S)-2-hydroxycyclohexyl)-6-(hydroxymethyl)-1-methyl-2-oxo-1,2-dihydropyridine-3-carboxamide at 20 uM after 60 mins by UHPLC-UV-HRMS analysis", "type": "ADME, Oryctolagus cuniculus, microsome"}, "[10]": {"assay": "Drug metabolism in rabbit liver microsomes assessed as formation of 5-(4-(1H-pyrazol-1-yl)benzyl)-N-((1S,2S)-2,4-dihydroxycyclohexyl)-1,6-dimethyl-2-oxo-1,2-dihydropyridine-3-carboxamide at 20 uM after 60 mins by UHPLC-UV-HRMS analysis", "type": "ADME, Oryctolagus cuniculus, microsome"}, "[11]": {"assay": "Drug metabolism in rabbit liver microsomes assessed as formation of 5-(4-(1H-pyrazol-1-yl)benzyl)-N-((1S,2S)-2,5-dihydroxycyclohexyl)-6-methyl-2-oxo-1,2-dihydropyridine-3-carboxamide at 20 uM after 60 mins by UHPLC-UV-HRMS analysis", "type": "ADME, Oryctolagus cuniculus, microsome"}, "[12]": {"assay": "Drug metabolism in rabbit liver microsomes assessed as formation of 5-(4-(1H-pyrazol-1-yl)benzyl)-N-((1S,2S)-2,4-dihydroxycyclohexyl)-6-(hydroxymethyl)-1-methyl-2-oxo-1,2-dihydropyridine-3-carboxamide at 20 uM after 60 mins by UHPLC-UV-HRMS analysis", "type": "ADME, Oryctolagus cuniculus, microsome"}, "[13]": {"assay": "Drug level in rat liver microsomes treated with N-((3R,4S)-3-hydroxytetrahydro-2H-pyran-4-yl)-5-methyl-1-(4-(1-methyl-1H-pyrazol-3-yl)benzyl)-1H-pyrrolo[3,2-b]pyridine-3-carboxamide at 20 uM after 70 mins by UHPLC-UV-HRMS analysis", "type": "ADME, microsome"}}, "data": [{"smiles": "Cc1cnc(C(=O)N[C@H]2CCOC[C@@H]2O)cc1C(O)c1ccc(-n2cccn2)cc1", "note": "(stereo in doubt; 11a)", "values": [{"measurement": "EC50", "setting": "[1]", "result": "> 1000", "unit": "nM"}, {"measurement": "Drug metabolism", "setting": "[2]", "result": "Metabolite_Detected"}]}, {"smiles": "Cn1ccc(-c2ccc(Cn3cc(C(=O)N[C@H]4CC(O)OC[C@@H]4O)c4ncccc43)cc2)n1", "note": "(stereo partly drawn)", "values": [{"measurement": "Drug metabolism", "setting": "[3]", "result": "Metabolite_Detected"}, {"measurement": "EC50", "setting": "[1]", "result": "> 207", "unit": "nM"}]}, {"smiles": "Cn1c(CO)c(Cc2ccc(-n3cccn3)cc2)cc(C(=O)N[C@H]2CCCC[C@@H]2O)c1=O", "values": [{"measurement": "Drug metabolism", "setting": "[4]", "result": "Metabolite_Detected"}, {"measurement": "EC50", "setting": "[1]", "result": 40, "unit": "nM"}]}, {"smiles": "Cc1cnc(C(=O)N[C@H]2CCOC[C@@H]2O)cc1C(O)c1ccc(-n2cccn2)cc1", "note": "(stereo in doubt; 11b)", "values": [{"measurement": "EC50", "setting": "[1]; cho", "result": "> 1000", "unit": "nM"}]}, {"smiles": "O=C(N[C@H]1CCCC[C@@H]1O)c1cn(Cc2ccc([N+]3([O-])C=CC=N3)cc2)c2cccnc12", "note": "(stereo partly drawn)", "values": [{"measurement": "EC50", "setting": "[1]", "result": 34, "unit": "nM"}, {"measurement": "Drug metabolism", "setting": "[5]", "result": "Metabolite_Detected"}]}, {"smiles": "O=C(N[C@H]1CCOC[C@@H]1O)c1cc(Cc2ccc(-n3cccn3)cc2)c(CO)cn1", "values": [{"measurement": "Papp", "setting": "[6]", "result": 4.6, "unit": "×10⁻⁶ cm/s"}, {"measurement": "EC50", "setting": "[1]", "result": 338, "unit": "nM"}, {"measurement": "Drug metabolism", "setting": "[2]", "result": "Metabolite_Detected"}, {"measurement": "efflux ratio", "setting": "[7]", "result": 15.9}, {"measurement": "CLint scaled", "setting": "[8]", "result": "< 8", "unit": "mL/min/kg"}]}, {"smiles": "Cc1c(Cc2ccc(-n3cccn3)cc2)cc(C(=O)N[C@H]2CCCC[C@@H]2O)c(=O)n1C", "values": [{"measurement": "Drug metabolism", "setting": "[9]", "result": "Metabolite_Detected"}, {"measurement": "efflux ratio", "setting": "[7]", "result": 2.7}, {"measurement": "Drug metabolism", "setting": "[10]", "result": "Metabolite_Detected"}, {"measurement": "Drug metabolism", "setting": "[11]", "result": "Metabolite_Detected"}, {"measurement": "Drug metabolism", "setting": "[12]", "result": "Metabolite_Detected"}]}, {"smiles": "Cn1c(CO)c(Cc2ccc(-n3cccn3)cc2)cc(C(=O)N[C@H]2CCC(O)C[C@@H]2O)c1=O", "note": "(stereo partly drawn)", "values": [{"measurement": "Drug metabolism", "setting": "[4]", "result": "Metabolite_Detected"}, {"measurement": "EC50", "setting": "[1]", "result": 177, "unit": "nM"}]}, {"smiles": "Cc1c(Cc2ccc(-n3cccn3)cc2)cc(C(=O)N[C@H]2CCC(O)C[C@@H]2O)c(=O)n1C", "note": "(stereo partly drawn)", "values": [{"measurement": "Drug metabolism", "setting": "[4]", "result": "Metabolite_Detected"}, {"measurement": "EC50", "setting": "[1]", "result": 63, "unit": "nM"}]}, {"smiles": "Cc1cnc(C(=O)N[C@H]2CCOC(O)[C@@H]2O)cc1Cc1ccc(-n2cccn2)cc1", "note": "(stereo partly drawn)", "values": [{"measurement": "EC50", "setting": "[1]", "result": 511, "unit": "nM"}, {"measurement": "Drug metabolism", "setting": "[2]", "result": "Metabolite_Detected"}]}, {"smiles": "Cc1cnc(C(=O)N[C@@H](CCO)[C@@H](O)CO)cc1Cc1ccc(-n2cccn2)cc1", "values": [{"measurement": "EC50", "setting": "[1]", "result": "> 300", "unit": "nM"}, {"measurement": "Drug metabolism", "setting": "[2]", "result": "Metabolite_Detected"}]}, {"smiles": "Cn1ccc(-c2ccc(Cn3cc(C(=O)N[C@H]4CCOC[C@@H]4O)c4nc(C=O)ccc43)cc2)n1", "values": [{"measurement": "Drug metabolism", "setting": "[13]", "result": "Metabolite_Detected"}, {"measurement": "EC50", "setting": "[1]", "result": 184, "unit": "nM"}]}, {"smiles": "O=C(N[C@H]1CCOC[C@@H]1O)c1cn(Cc2ccc(-c3cc[nH]n3)cc2)c2cccnc12", "values": [{"measurement": "Drug metabolism", "setting": "[3]", "result": "Metabolite_Detected"}]}, {"smiles": "Cc1cnc(C(=O)N[C@H]2CCOC[C@@H]2O)cc1C(O)c1ccc(-c2cscn2)cc1", "note": "(stereo in doubt; 14b)", "values": [{"measurement": "EC50", "setting": "[1]", "result": "> 1100", "unit": "nM"}]}, {"smiles": "O=C(N[C@H]1CCC(O)C[C@@H]1O)c1cn(Cc2ccc(-n3cccn3)cc2)c2cccnc12", "note": "(stereo in doubt; 20a)", "values": [{"measurement": "EC50", "setting": "[1]", "result": 167, "unit": "nM"}, {"measurement": "Drug metabolism", "setting": "[5]", "result": "Metabolite_Detected"}]}]}
